Source: patent US20220409598A1, “METHOD OF CONTROLLING BLOOD SUGAR LEVEL AND TREATMENT OF DIABETES AND RELATED CONDITIONS” (ILDONG PHARMACEUTICAL CO., LTD., priority 2021, published 2022)

Experiments:
MRP2 = MRP2 (Homo sapiens, UniProt Q92887); assay: Human transporter inhibition study, MRP2; assay type: biochemical; settings: read-out: MRP2 in vitro inhibition IC50
Excerpt: (§1) • (a) Human Transporter Inhibition Study and Safety Margin

MRP3 = MRP3 (Homo sapiens, UniProt O15438); assay: Human transporter inhibition study, MRP3; assay type: biochemical
MRP3, sequence (O15438 whole entry): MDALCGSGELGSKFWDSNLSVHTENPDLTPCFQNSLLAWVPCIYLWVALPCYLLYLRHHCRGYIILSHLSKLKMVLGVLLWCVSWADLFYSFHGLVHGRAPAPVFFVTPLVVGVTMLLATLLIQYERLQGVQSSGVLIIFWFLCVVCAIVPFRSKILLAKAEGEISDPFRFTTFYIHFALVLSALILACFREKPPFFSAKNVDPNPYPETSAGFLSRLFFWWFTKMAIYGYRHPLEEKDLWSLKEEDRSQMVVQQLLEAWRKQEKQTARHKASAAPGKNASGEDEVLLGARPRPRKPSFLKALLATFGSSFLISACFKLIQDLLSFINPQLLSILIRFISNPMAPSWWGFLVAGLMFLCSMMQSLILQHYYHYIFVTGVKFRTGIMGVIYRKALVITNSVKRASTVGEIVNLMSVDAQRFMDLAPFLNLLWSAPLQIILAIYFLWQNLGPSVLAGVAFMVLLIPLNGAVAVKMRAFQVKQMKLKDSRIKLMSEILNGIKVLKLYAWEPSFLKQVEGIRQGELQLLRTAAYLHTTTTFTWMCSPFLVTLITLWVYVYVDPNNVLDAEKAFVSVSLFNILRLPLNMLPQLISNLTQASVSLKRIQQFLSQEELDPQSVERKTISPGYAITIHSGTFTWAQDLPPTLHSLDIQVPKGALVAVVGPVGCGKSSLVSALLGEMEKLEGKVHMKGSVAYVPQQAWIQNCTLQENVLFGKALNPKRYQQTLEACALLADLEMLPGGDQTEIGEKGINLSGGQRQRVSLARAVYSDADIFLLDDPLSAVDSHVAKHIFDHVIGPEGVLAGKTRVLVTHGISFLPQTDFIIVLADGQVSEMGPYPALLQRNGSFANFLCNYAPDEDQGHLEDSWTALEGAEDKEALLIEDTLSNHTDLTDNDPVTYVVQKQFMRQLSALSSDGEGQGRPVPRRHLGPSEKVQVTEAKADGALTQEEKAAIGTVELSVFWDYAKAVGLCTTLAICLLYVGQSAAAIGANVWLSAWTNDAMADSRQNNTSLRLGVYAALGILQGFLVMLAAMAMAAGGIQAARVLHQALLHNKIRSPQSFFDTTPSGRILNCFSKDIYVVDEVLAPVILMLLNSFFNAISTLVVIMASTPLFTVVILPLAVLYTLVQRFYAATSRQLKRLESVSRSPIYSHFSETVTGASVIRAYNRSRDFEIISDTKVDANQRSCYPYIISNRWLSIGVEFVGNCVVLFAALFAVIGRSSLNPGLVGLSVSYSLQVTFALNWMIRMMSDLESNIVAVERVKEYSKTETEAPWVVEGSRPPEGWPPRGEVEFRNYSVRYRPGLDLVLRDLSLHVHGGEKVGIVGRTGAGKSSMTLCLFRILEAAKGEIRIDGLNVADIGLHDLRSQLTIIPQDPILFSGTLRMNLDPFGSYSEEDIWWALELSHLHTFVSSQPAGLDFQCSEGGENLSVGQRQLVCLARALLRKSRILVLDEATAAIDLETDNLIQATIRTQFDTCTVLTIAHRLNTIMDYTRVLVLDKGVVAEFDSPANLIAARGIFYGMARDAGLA
Excerpt: as §1

[1] = tested on: glycocholic acid (GCA) accumulation; assay: Bile acid analysis, glycocholic acid (GCA) accumulation; assay type: cell-based; settings: at 1 μM
Excerpt: Glycocholic acid (GCA) and glycochenodeoxycholic acid (GCDCA) are major components of human bile acids and their significant increase has been confirmed in DILI patients.

[2] = HμRELTox assay, hepatotoxic response; assay type: cell-based; settings: read-out: TC50 (the source's name)
FXR = assay: Transcription factor profiling in 2D HepG2 cell, FXR; assay type: cell-based; settings: 10 μM for 48 hours
[3] = tested on: hepatic transcription factors; assay: Transcription factor profiling in 2D HepG2 cell, various hepatic transcription factors; assay type: cell-based; settings: 2D HepG2 cell, 0.3, 3.3, 10 μM; compared to fasiglifam

MRP2, sequence (Q92887 whole entry): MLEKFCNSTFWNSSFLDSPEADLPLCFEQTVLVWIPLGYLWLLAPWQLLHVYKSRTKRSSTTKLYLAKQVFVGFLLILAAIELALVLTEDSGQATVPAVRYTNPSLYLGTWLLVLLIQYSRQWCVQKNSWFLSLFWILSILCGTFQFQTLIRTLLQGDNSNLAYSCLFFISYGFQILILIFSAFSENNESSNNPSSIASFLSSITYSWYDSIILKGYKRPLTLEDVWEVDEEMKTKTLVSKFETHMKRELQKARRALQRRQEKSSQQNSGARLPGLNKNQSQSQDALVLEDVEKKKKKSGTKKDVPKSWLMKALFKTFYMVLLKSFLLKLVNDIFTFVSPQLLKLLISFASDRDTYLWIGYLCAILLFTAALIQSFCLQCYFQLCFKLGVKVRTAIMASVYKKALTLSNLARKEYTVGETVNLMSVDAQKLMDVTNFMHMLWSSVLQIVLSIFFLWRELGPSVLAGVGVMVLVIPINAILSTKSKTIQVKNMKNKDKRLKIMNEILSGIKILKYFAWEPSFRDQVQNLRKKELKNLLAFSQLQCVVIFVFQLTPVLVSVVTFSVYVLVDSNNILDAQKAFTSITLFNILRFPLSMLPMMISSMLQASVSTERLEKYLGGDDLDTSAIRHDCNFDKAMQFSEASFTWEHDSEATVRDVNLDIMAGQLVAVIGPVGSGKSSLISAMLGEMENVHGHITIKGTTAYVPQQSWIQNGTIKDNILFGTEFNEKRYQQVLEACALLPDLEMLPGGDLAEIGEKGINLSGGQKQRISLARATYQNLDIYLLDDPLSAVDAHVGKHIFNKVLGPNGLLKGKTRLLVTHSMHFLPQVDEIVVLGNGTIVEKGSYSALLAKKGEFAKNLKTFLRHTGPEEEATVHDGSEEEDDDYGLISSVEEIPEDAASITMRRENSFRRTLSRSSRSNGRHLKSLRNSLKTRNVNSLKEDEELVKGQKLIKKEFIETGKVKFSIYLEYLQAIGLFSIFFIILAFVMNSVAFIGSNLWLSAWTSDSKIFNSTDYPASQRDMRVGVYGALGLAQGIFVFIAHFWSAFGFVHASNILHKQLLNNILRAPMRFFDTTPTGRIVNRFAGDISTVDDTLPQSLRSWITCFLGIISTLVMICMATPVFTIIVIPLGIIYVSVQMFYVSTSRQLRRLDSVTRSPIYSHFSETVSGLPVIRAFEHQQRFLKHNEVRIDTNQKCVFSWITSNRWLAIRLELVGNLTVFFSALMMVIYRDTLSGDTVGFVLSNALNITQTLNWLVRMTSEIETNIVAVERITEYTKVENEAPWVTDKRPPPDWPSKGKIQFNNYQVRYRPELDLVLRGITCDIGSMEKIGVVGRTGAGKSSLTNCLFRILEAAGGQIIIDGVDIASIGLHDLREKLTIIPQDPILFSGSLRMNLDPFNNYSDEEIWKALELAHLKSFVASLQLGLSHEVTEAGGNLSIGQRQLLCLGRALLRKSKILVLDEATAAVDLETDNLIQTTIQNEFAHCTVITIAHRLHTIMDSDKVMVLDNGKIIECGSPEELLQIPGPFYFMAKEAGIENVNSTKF

Q: For `CC#C[C@@H](CC(=O)O)c1ccc(O[C@@H]2CCc3c(-c4ccc(O[C@@H]5CCOC5)nc4)ccc(F)c32)cc1` [Reference Example 1, (S)-3-(4-(((R)-7-Fluoro-4-(6-(((R)-tetrahydrofuran-3-yl)oxy)pyridin-3-yl)-2,3-dihydro-1H-inden-1-yl)oxy)phenyl)hex-4-ynoic acid], which IC50 (MRP2) is on record?
A: The IC50 was 39.9 µM.

Q: And the “MRP3 in vitro inhibition IC50” value (MRP3)?
A: Its value is “No inhibition”.

Q: And the “Accumulation of glycocholic acid (GCA)” value [1]?
A: The value was “does not show significant accumulation”.

Q: What about the CC50 [2] of the same compound?
A: The CC50 was 52.7 µM.

Q: And the “Increase of FXR activity” value (FXR)?
A: Its value is 1.58 fold.

Q: What about the “Effect on various transcription factor (TF) activities” value [3] of the same compound?
A: Its value is “insignificant”.
